One block for each molecule: values may come before it.
Target: T1, Chk1 (Homo sapiens, UniProt O14757)
T1 construct: purchased Upstate Biotechnology
T1 sequence (O14757 1-476): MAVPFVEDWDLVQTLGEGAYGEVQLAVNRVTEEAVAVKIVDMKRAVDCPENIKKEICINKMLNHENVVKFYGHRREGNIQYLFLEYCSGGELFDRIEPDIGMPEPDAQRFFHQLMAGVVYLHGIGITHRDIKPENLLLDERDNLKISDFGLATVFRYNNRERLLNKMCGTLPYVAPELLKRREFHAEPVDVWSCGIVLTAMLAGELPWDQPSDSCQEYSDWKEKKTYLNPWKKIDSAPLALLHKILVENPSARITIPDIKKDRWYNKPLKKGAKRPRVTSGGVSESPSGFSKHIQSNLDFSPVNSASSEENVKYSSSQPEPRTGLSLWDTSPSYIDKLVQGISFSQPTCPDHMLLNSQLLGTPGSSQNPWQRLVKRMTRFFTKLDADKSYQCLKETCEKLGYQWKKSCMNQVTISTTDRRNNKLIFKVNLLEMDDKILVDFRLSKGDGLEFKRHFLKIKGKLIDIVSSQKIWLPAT
Experiment: Chk1 kinase assay: incorporation of γ-33P ATP into immobilized myelin basic protein
Type: biochemical
Conditions: Table 11; Chk1 only; read-out: Chk1 IC50
How it was run: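 Enzyme activity is measured as γ-33P transfer from ATP onto immobilized MBP over 1 h at room temperature, with Chk1 at 10 nM/10 μM unlabeled ATP and Chk2 at 20 nM/30 μM unlabeled ATP. Compounds are tested in 1% DMSO.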

Compound: Nc1ncc(-c2cccc(C(=O)N[C@H]3CCc4ccccc43)c2)nc1C(=O)N[C@H]1CCNC1 [Example 644, 3-amino-6-(3-{[(1S)-2,3-dihydro-1H-inden-1-ylamino]carbonyl}phenyl)-N-[(3S)-pyrrolidin-3-yl]pyrazine-2-carboxamide]
IC50: < 0.05 µM

Compound: Nc1ncc(-c2cccc(C(=O)N[C@H]3CCc4ccccc43)c2)nc1C(=O)N[C@@H]1CCNC1 [Example 645, 3-amino-6-(3-{[(1S)-2,3-dihydro-1H-inden-1-ylamino]carbonyl}phenyl)-N-[(3R)-pyrrolidin-3-yl]pyrazine-2-carboxamide]
IC50: 0.05 to 1 µM

Compound: Nc1ncc(-c2cccc(C(=O)N[C@H]3CCc4ccccc43)c2)nc1C(=O)N[C@H]1CCN(C(=O)c2ccco2)C1 [Example 646, 3-amino-6-(3-{[(1S)-2,3-dihydro-1H-inden-1-ylamino]carbonyl}phenyl)-N-[(3S)-1-(furan-2-ylcarbonyl)pyrrolidin-3-yl]pyrazine-2-carboxamide]
IC50: 1 to 10 µM

Compound: Nc1ncc(-c2cccc(C(=O)N[C@H]3CCc4ccccc43)c2)nc1C(=O)N[C@H]1CCN(C(=O)c2ccncc2)C1 [Example 649, 3-amino-6-(3-{[(1S)-2,3-dihydro-1H-inden-1-ylamino]carbonyl}phenyl)-N-[(3S)-1-(pyridin-4-ylcarbonyl)pyrrolidin-3-yl]pyrazine-2-carboxamide]
IC50: ≥ 10 µM

Compound: Nc1ncc(-c2cccc(C(=O)NCc3ccccc3)c2)nc1C(=O)NCCCNS(=O)(=O)c1cccc2cccnc12 [Example 653, 3-amino-6-(3-{[(phenylmethyl)amino]carbonyl}phenyl)-N-{3-[(quinolin-8-ylsulfonyl)amino]propyl}pyrazine-2-carboxamide]
IC50: ≥ 10 µM

Compound: Nc1ncc(-c2cccc(C(=O)NCc3ccccc3)c2)nc1C(=O)NCCCNS(=O)(=O)c1ccccn1 [Example 654, 3-amino-6-(3-{[(phenylmethyl)amino]carbonyl}phenyl)-N-{3-[(pyridin-2-ylsulfonyl)amino]propyl}pyrazine-2-carboxamide]
IC50: 1 to 10 µM

Compound: Cc1noc(C)c1NC(=O)NCCCNC(=O)c1nc(-c2cccc(C(=O)NCc3ccccc3)c2)cnc1N [Example 655, 3-amino-N-[3-({[(3,5-dimethylisoxazol-4-yl)amino]carbonyl}amino)propyl]-6-(3-{[(phenylmethyl)amino]carbonyl}phenyl)pyrazine-2-carboxamide]
IC50: 1 to 10 µM

Compound: Cc1nccc(-c2nc(-c3cccc(C(=O)NCc4ccccc4)c3)cnc2N)n1 [Example 656, 3-[5-amino-6-(2-methylpyrimidin-4-yl)pyrazin-2-yl]-N-(phenylmethyl)benzamide]
IC50: 1 to 10 µM

Compound: CNc1nccc(-c2nc(-c3cccc(C(=O)NCc4ccccc4)c3)cnc2N)n1 [Example 657, 3-{5-amino-6-[2-(methylamino)pyrimidin-4-yl]pyrazin-2-yl}-N-(phenylmethyl)benzamide]
IC50: ≥ 10 µM

Compound: Nc1ncc(-c2cccc(C(=O)NCc3ccccc3)c2)nc1C(=O)NCCNC(=O)c1ccco1 [Example 659, 3-amino-N-{2-[(furan-2-ylcarbonyl)amino]ethyl}-6-(3-{[(phenylmethyl)amino]carbonyl}phenyl)pyrazine-2-carboxamide]
IC50: ≥ 10 µM

Compound: Nc1ncc(-c2cccc(C(=O)NCc3ccccc3)c2)nc1C(=O)NC1CCCCC1NC(=O)c1nc(-c2cccc(C(=O)NCc3ccccc3)c2)cnc1N (centres unmarked) [Example 660, N,N′-cyclohexane-1,2-diylbis[3-amino-6-(3-{[(phenylmethyl)amino]carbonyl}phenyl)pyrazine-2-carboxamide]]
IC50: ≥ 10 µM

Compound: CC(=O)NCCNC(=O)c1nc(-c2cccc(C(=O)NCc3ccccc3)c2)cnc1N [Example 661, N-[2-(acetylamino)ethyl]-3-amino-6-(3-{[(phenylmethyl)amino]carbonyl}phenyl)pyrazine-2-carboxamide]
IC50: 1 to 10 µM

Compound: Nc1ncc(-c2cccc(C(=O)NCc3ccccc3)c2)nc1C(=O)NCCNS(=O)(=O)c1cccc2cccnc12 [Example 662, 3-amino-6-(3-{[(phenylmethyl)amino]carbonyl}phenyl)-N-{2-[(quinolin-8-ylsulfonyl)amino]ethyl}pyrazine-2-carboxamide]
IC50: ≥ 10 µM

Compound: Nc1ncc(-c2cccc(C(=O)NCc3ccccc3)c2)nc1C(=O)NCCNC(=O)c1cnc2ccccc2n1 [Example 663, N-[2-({[3-amino-6-(3-{[(phenylmethyl)amino]carbonyl}phenyl)pyrazin-2-yl]carbonyl}amino)ethyl]quinoxaline-2-carboxamide]
IC50: ≥ 10 µM

Compound: Nc1ncc(-c2cccc(C(=O)NCc3ccccc3)c2)nc1C(=O)NCCNS(=O)(=O)c1ccccn1 [Example 665, 3-amino-6-(3-{[(phenylmethyl)amino]carbonyl}phenyl)-N-{2-[(pyridin-2-ylsulfonyl)amino]ethyl}pyrazine-2-carboxamide]
IC50: ≥ 10 µM

Compound: Cc1noc(C)c1NC(=O)NCCNC(=O)c1nc(-c2cccc(C(=O)NCc3ccccc3)c2)cnc1N [Example 666, 3-amino-N-[2-({[(3,5-dimethylisoxazol-4-yl)amino]carbonyl}amino)ethyl]-6-(3-{[(phenylmethyl)amino]carbonyl}phenyl)pyrazine-2-carboxamide]
IC50: 1 to 10 µM

Second part, the molecule after the results:

IC50: 1 to 10 µM
Compound: CC(=O)NCCCNC(=O)c1nc(-c2cccc(C(=O)NCc3ccccc3)c2)cnc1N [Example 647, N-[3-(acetylamino)propyl]-3-amino-6-(3-{[(phenylmethyl)amino]carbonyl}phenyl)pyrazine-2-carboxamide]

IC50: 1 to 10 µM
Compound: Nc1ncc(-c2cccc(C(=O)NCc3ccccc3)c2)nc1C(=O)NCCCNC(=O)c1ccco1 [Example 648, 3-amino-N-{3-[(furan-2-ylcarbonyl)amino]propyl}-6-(3-{[(phenylmethyl)amino]carbonyl}phenyl)pyrazine-2-carboxamide]

IC50: 1 to 10 µM
Compound: Nc1ncc(-c2cccc(C(=O)NCc3ccccc3)c2)nc1C(=O)NCCCNC(=O)c1ccncc1 [Example 650, 3-amino-6-(3-{[(phenylmethyl)amino]carbonyl}phenyl)-N-{3-[(pyridin-4-ylcarbonyl)amino]propyl}pyrazine-2-carboxamide]

IC50: ≥ 10 µM
Compound: Nc1ncc(-c2cccc(C(=O)NCc3ccccc3)c2)nc1C(=O)NCCCNC(=O)c1cnc2ccccc2n1 [Example 651, N-[3-({[3-amino-6-(3-{[(phenylmethyl)amino]carbonyl}phenyl)pyrazin-2-yl]carbonyl}amino)propyl]quinoxaline-2-carboxamide]

IC50: ≥ 10 µM
Compound: Nc1ncc(-c2cccc(C(=O)NCc3ccccc3)c2)nc1C(=O)NCCCNC(=O)c1ccc(C(F)(F)F)nc1 [Example 652, 3-amino-6-(3-{[(phenylmethyl)amino]carbonyl}phenyl)-N-[3-({[6-(trifluoromethyl)pyridin-3-yl]carbonyl}amino)propyl]pyrazine-2-carboxamide]

IC50: 1 to 10 µM
Compound: Nc1ncc(-c2cccc(C(=O)NCc3ccccc3)c2)nc1C(=O)NCCNC(=O)c1ccncc1 [Example 658, 3-amino-6-(3-{[(phenylmethyl)amino]carbonyl}phenyl)-N-{2-[(pyridin-4-ylcarbonyl)amino]ethyl}pyrazine-2-carboxamide]

IC50: 1 to 10 µM
Compound: Nc1ncc(-c2cccc(C(=O)NCc3ccccc3)c2)nc1C(=O)NCCNC(=O)c1cccnc1Cl [Example 664, 3-amino-N-(2-{[(2-chloropyridin-3-yl)carbonyl]amino}ethyl)-6-(3-{[(phenylmethyl)amino]carbonyl}phenyl)pyrazine-2-carboxamide]

Source: patent US7704995B2 (Exelixis, Inc., priority 2003, dated 2010)
